The test system of this experiment is cancer cells. Description: MTS assay: inhibition of cell growth (formazan absorbance at 492 nm after 72 hours with test compound). The class given is cell-based. Conditions: inhibition class. The method, boiled down:
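DMEM with 1% FBS; cells seeded at 3000/well and grown 18 h at 37 °C, then exposed to compound for 72 h and to MTS/PMS for 4 h. IC50 is the concentration giving a 50% absorbance drop; grades are % inhibition bands.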
Background: Tetrazolium dyes change colour on reduction, which living cells bring about.

Setting [1] is: Homo sapiens, DLD-1 cells, read-out: DLD-1, MTS 72 hours at 10 uM.
Where [2] appears, read: Homo sapiens, KATO III cells, read-out: KATO III, MTS 72 hours at 10 uM.
[3] abbreviates: Homo sapiens, MDA-MB-231 cells, read-out: MDA-MB-231, MTS 72 hours at 10 uM.
Setting [4] is: Homo sapiens, NCI-H1299 cells, read-out: NCI-H1299, MTS 72 hours at 10 uM.
Where [5] appears, read: Homo sapiens, PC-3 cells, read-out: PC-3, MTS 72 hours at 10 uM.
Setting [6] is: PACA-2 cells, read-out: PACA-2, MTS 72 hours at 10 uM.

Read-outs that look alike come from different tables or passages of the source.

For the compound `O=C(CN1CCN(c2nc3c4c(n[nH]c4n2)CCN3Cc2ccccc2)CC1)N1CCCC1` [Compound 83, 6-benzyl-4-[4-(2-oxo-2-pyrrolidin-1-ylethyl)piperazin-1-yl]-2,6,7,8-tetrahydro-1,2,3,5,6-pentaazaacenaphthylene], the inhibition at 10 µM by setting is: under setting [1], under 50%; under setting [2], under 50%; under setting [3], under 50%; under setting [4], under 50%; under setting [5], under 50%; under setting [6], under 50%.

Turning to `c1ccc(CN2CCc3n[nH]c4nc(N5CCN6CCCC6C5)nc2c34)cc1` (stereo not drawn) [Compound 42, 6-benzyl-4-(hexahydropyrrolo[1,2-a]pyrazin-2(1H)-yl)-2,6,7,8-tetrahydro-1,2,3,5,6-pentaazaacenaphthylene], the inhibition at 10 µM runs as follows: under setting [1], under 50%; under setting [2], under 50%; under setting [3], under 50%; under setting [4], under 50%; under setting [5], under 50%; under setting [6], under 50%.

`c1cc(N2CCN(c3nc4c5c(n[nH]c5n3)CCN4)CC2)ccn1` [Compound 122, 4-(4-pyridin-4-ylpiperazin-1-yl)-2,6,7,8-tetrahydro-1,2,3,5,6-pentaazaacenaphthylene]: the inhibition at 10 µM runs as follows: under setting [1], under 50%; under setting [2], under 50%; under setting [3], under 50%; under setting [4], under 50%; under setting [5], under 50%; under setting [6], under 50%.

For `Fc1ccc(CCNc2nc3c4c(n[nH]c4n2)CCN3Cc2ccccc2)cc1` [Compound 46, 6-benzyl-N-[2-(4-fluorophenyl)ethyl]-2,6,7,8-tetrahydro-1,2,3,5,6-pentaazaacenaphthylen-4-amine], the inhibition at 10 µM runs as follows: under setting [1], over 79%; under setting [2], over 79%; under setting [3], over 79%; under setting [4], 50 to 79%; under setting [5], under 50%; under setting [6], over 79%.

As for `c1ccc(CCNc2nc3c4c(n[nH]c4n2)CCN3)cc1` [Compound 128, N-(2-phenylethyl)-2,6,7,8-tetrahydro-1,2,3,5,6-pentaazaacenaphthylen-4-amine], the inhibition at 10 µM under setting [1] is over 79%; the inhibition at 10 µM under setting [2] is over 79%; the inhibition at 10 µM under setting [3] is over 79%; the inhibition at 10 µM under setting [4] was over 79%; the inhibition at 10 µM under setting [5] is over 79%; the inhibition at 10 µM under setting [6] was over 79%.

`COc1ccc(CN2CCCc3n[nH]c4nc(N5CCCCC5)nc2c34)cc1` [Compound 245, 6-(4-methoxybenzyl)-4-piperidin-1-yl-6,7,8,9-tetrahydro-2H-1,2,3,5,6-pentaazabenzo[cd]azulene]: the inhibition at 10 µM reads like this: under setting [1], under 50%; under setting [2], under 50%; under setting [3], under 50%; under setting [4], under 50%; under setting [5], under 50%; under setting [6], under 50%.

For `COC(=O)Cn1nc2c3c(nc(SC)nc31)N(Cc1ccccc1)CC2` [Compound 172, methyl [6-benzyl-4-(methylsulfanyl)-7,8-dihydro-1,2,3,5,6-pentaazaacenaphthylen-2(6H)-yl]acetate], the inhibition at 10 µM is 50 to 79% under setting [1]; under 50% under setting [2]; under 50% under setting [3]; under 50% under setting [4]; over 79% under setting [5]; over 79% under setting [6].

For `c1ccc(CN2CCc3n[nH]c4nc(NCCc5c[nH]c6ccccc56)nc2c34)cc1` [Compound 26, 6-benzyl-N-[2-(1H-indol-3-yl)ethyl]-2,6,7,8-tetrahydro-1,2,3,5,6-pentaazaacenaphthylen-4-amine], the inhibition at 10 µM runs as follows: under setting [1], under 50%; under setting [2], under 50%; under setting [3], under 50%; under setting [4], under 50%; under setting [5], under 50%; under setting [6], under 50%.

Take `CN(C)CCCNc1nc2c3c(n[nH]c3n1)C(C(=O)NCc1ccccc1)CN2Cc1ccccc1` (stereo not drawn) [Compound 223, N,6-dibenzyl-4-{[3-(dimethylamino)propyl]ami-no}-2,6,7,8-tetrahydro-1,2,3,5,6-pentaazaacenaphthylene-8-carboxamide]: the inhibition at 10 µM reads like this: under setting [1], under 50%; under setting [2], under 50%; under setting [3], under 50%; under setting [4], under 50%; under setting [5], under 50%; under setting [6], under 50%.

Take `COc1ccc(CNc2nc3c4c(n[nH]c4n2)CCN3Cc2ccccc2)cc1OC` [Compound 47, 6-benzyl-N-(3,4-dimethoxybenzyl)-2,6,7,8-tetrahydro-1,2,3,5,6-pentaazaacenaphthylen-4-amine]: the inhibition at 10 µM under setting [1] is under 50%; the inhibition at 10 µM under setting [2] was under 50%; the inhibition at 10 µM under setting [3] is under 50%; the inhibition at 10 µM under setting [4] is under 50%; the inhibition at 10 µM under setting [5] is under 50%; the inhibition at 10 µM under setting [6] is under 50%.

On to `COc1ccccc1CCNc1nc2c3c(n[nH]c3n1)CCN2Cc1ccccc1` [Compound 48, 6-benzyl-N-[2-(2-methoxyphenyl)ethyl]-2,6,7,8-tetrahydro-1,2,3,5,6-pentaazaacenaphthylen-4-amine], for which the inhibition at 10 µM under setting [1] is under 50%; the inhibition at 10 µM under setting [2] is under 50%; the inhibition at 10 µM under setting [3] was 50 to 79%; the inhibition at 10 µM under setting [4] was under 50%; the inhibition at 10 µM under setting [5] is under 50%; the inhibition at 10 µM under setting [6] was under 50%.

Take `c1ccc(CN2CCc3n[nH]c4nc(NCCCN5CCCCC5)nc2c34)cc1` [Compound 90, 6-benzyl-N-(3-piperidin-1-ylpropyl)-2,6,7,8-tetrahydro-1,2,3,5,6-pentaazaacenaphthylen-4-amine]: the inhibition at 10 µM is over 79% under setting [1]; over 79% under setting [2]; over 79% under setting [3]; over 79% under setting [4]; over 79% under setting [5]; over 79% under setting [6].

Take `c1ccc(CN2CCc3n[nH]c4nc(N5CCN(c6cnccn6)CC5)nc2c34)cc1` [Compound 56, 6-benzyl-4-(4-pyrazin-2-ylpiperazin-1-yl)-2,6,7,8-tetrahydro-1,2,3,5,6-pentaazaacenaphthylene]: the inhibition at 10 µM was under 50% under setting [1]; under 50% under setting [2]; under 50% under setting [3]; under 50% under setting [4]; under 50% under setting [5]; under 50% under setting [6].

Regarding `Cc1ccc(C)c(CCNc2nc3c4c(n[nH]c4n2)CCN3Cc2ccccc2)c1` [Compound 86, 6-benzyl-N-[2-(2,5-dimethylphenyl)ethyl]-2,6,7,8-tetrahydro-1,2,3,5,6-pentaazaacenaphthylen-4-amine], the inhibition at 10 µM is under 50% under setting [1]; 50 to 79% under setting [2]; under 50% under setting [3]; 50 to 79% under setting [4]; under 50% under setting [5]; under 50% under setting [6].

The values above are taken from US8343983B2, “Substituted pyrazolo-pyrimidine compounds” (ArQule, Inc., priority 2009, dated 2013).
